Test results published in article PMC5985439, “Multiple Resistance Evolution in Bipyridylium-Resistant Epilobium ciliatum After Recurrent Selection” (Frontiers in Plant Science, 2018).

Tests used:
Assay type in all cases: biochemical, Epilobium ciliatum
[1] = system: T1, acetolactate synthase (ALS), S biotype; assay: ALS activity, colorimetric acetoin at […] nm, de-salted leaf extract; settings: read-out: I50
T1 construct: native enzyme in de-salted crude extract of young leaves

[2] = molecular target: T2, glutamine synthetase (GS), R2 biotype; assay: GS activity, crude leaf protein extract; settings: stated gain, read-out: I50
T2 construct: gene GS1; native isoenzymes in crude leaf protein extract (rosette stage)

[3] = molecular target: T3, glutamine synthetase (GS), R1 biotype; assay: GS activity, crude leaf protein extract; settings: read-out: I50
T3 construct: gene GS1; native isoenzymes in crude leaf protein extract (rosette stage); isoforms not resolved; described as glufosinate-sensitive

[4] = molecular target: T4, glutamine synthetase (GS), S biotype; assay: GS activity, crude leaf protein extract; settings: read-out: I50
T4 construct: gene GS1; native isoenzymes in crude leaf protein extract (rosette stage); isoforms not resolved

## COc1cc(OC)nc(NC(=O)NS(=O)(=O)c2ncccc2C(F)(F)F)n1 [flazasulfuron]
[1]
  IC50: 30.9 µM

## CP(=O)(O)CCC(N)C(=O)O (stereo not shown) [glufosinate]
[2]
  IC50: 1250 µM
[3]
  IC50: 25.8 µM
[4]
  IC50: 18.5 µM
